Results: ChEMBL document CHEMBL3507680, “University of Dundee, Gates Library screen for HepG2 cell viability”

Experiment: Human HepG2 cell viability assay in 384 well format
Assay type: toxicity, cell-based
Set-up: dose 125 nL, time 70.5 hour; cytotoxicity at 70.5 h: concentration not given beside the values
Conditions: HepG2 cells, read-out: Inhibition

Cc1ccc(=O)n(Cc2csc(N(C)C3CC3)n2)n1
cytotoxicity at 70.5 h: -10.2%

COc1ccc(Cl)cc1CS(=O)(=O)Cc1nc(C2CC2)no1
cytotoxicity at 70.5 h: -5.91%

N#Cc1ccc(F)c(CN2CCc3sccc3C2)c1
cytotoxicity at 70.5 h: -5.04%

Cc1ccc(C(=O)NC(C)Cn2cccn2)c(=O)[nH]1 (centres undefined)
cytotoxicity at 70.5 h: 8.15%

Cc1ccc(C(=O)NCC(C)Cn2cccn2)c(=O)[nH]1 (centres undefined)
cytotoxicity at 70.5 h: -3.38%

CC1CN(C(=O)c2cnn(-c3ccccn3)c2C(C)C)CC(C)(C)O1 (centres undefined)
cytotoxicity at 70.5 h: -4.17%

COc1c(Cl)cc(C(=O)NCc2n[nH]c(C)n2)cc1Cl
cytotoxicity at 70.5 h: 2.06%

CCc1c(C(=O)N2CC(C)OC(C)(C)C2)cnn1-c1ccccn1 (centres undefined)
cytotoxicity at 70.5 h: -4.53%

Cc1[nH]nc2ncc(C(=O)N3CCN(C(C)(C)C)CC3)cc12
cytotoxicity at 70.5 h: -0.02%

Cc1nnc2n1CCN(Cc1nc3ccccc3o1)C2
cytotoxicity at 70.5 h: -3.32%

COc1ccc(Cl)cc1CS(=O)(=O)Cc1noc(C)n1
cytotoxicity at 70.5 h: 12.6%

CCc1nnc2n1CCN(c1nc3ccccc3o1)C2
cytotoxicity at 70.5 h: -7.72%

Cc1nnc2n1CCN(c1nc3ccccc3o1)C2
cytotoxicity at 70.5 h: 1.55%

Cc1noc(C(C)Nc2ccc3oc(=O)[nH]c3c2)n1 (centres undefined)
cytotoxicity at 70.5 h: -0.467%

COc1ccccc1C(=O)NCc1n[nH]c(C)n1
cytotoxicity at 70.5 h: 0.0224%

Cc1nn(C)c(C)c1C1CCCN1Cc1nnc(C2CC2)n1C (centres undefined)
cytotoxicity at 70.5 h: -1.77%

Cc1[nH]nc2ncc(C(=O)N3CCN(CC(C)(C)O)CC3)cc12
cytotoxicity at 70.5 h: -0.78%

O=C(CC1OCCc2ccccc21)NCCn1cccc1 (centres undefined)
cytotoxicity at 70.5 h: -4.75%

N#CC(NC(=O)c1cccc2c1OCCO2)c1ccc(F)cc1F (centres undefined)
cytotoxicity at 70.5 h: -4.12%

O=C(CN1CCCS1(=O)=O)Nc1ccc(OC2CCCC2)c(Cl)c1
cytotoxicity at 70.5 h: -0.366%

CSc1c[nH]nc1NS(=O)(=O)c1ccc(C)c(C)c1
cytotoxicity at 70.5 h: -2.13%

Cc1ccc(-c2ncc(CN3CCN(S(N)(=O)=O)CC3)s2)o1
cytotoxicity at 70.5 h: 0.625%

COc1c(C2CCCN2Cc2nccn2C)c(C)nn1C (centres undefined)
cytotoxicity at 70.5 h: 2.44%

CCN(C)S(=O)(=O)N(Cc1cscn1)c1ccccc1
cytotoxicity at 70.5 h: -7.14%

COc1c(C2CCCN2Cc2nnc(C3CC3)n2C)c(C)nn1C (centres undefined)
cytotoxicity at 70.5 h: -5.73%

O=c1ccncn1Cc1csc(C2CC2)n1
cytotoxicity at 70.5 h: -3.74%

Cc1cc(C)n2c(CNCc3ccc(OC(F)F)cc3)cnc2n1
cytotoxicity at 70.5 h: -9.15%

CC(C)c1nnc(CN2CC(n3cccn3)C2)o1
cytotoxicity at 70.5 h: -6.56%

CNC(=O)C1Cc2ccccc2CN1C(=O)CC(C)C (centres undefined)
cytotoxicity at 70.5 h: -10.1%

CCN(CC)C(CNC(=O)c1ccc(-n2cncn2)cc1)c1ccsc1 (centres undefined)
cytotoxicity at 70.5 h: -3.69%

CN(C)C(CNC(=O)c1ccnc(-n2cncn2)c1)c1ccccc1 (centres undefined)
cytotoxicity at 70.5 h: -9.4%

O=C(NCC1CCS(=O)(=O)C1)N(Cc1ccncc1)C1CC1 (centres undefined)
cytotoxicity at 70.5 h: -6.32%

COc1ccccc1C(C)(C)NC(=O)c1ccc(F)c(NC(C)=O)c1
cytotoxicity at 70.5 h: -7.74%

Cc1nnc(N2CCc3cncnc3C2)c(C#N)c1C
cytotoxicity at 70.5 h: -4.76%

COc1ccccc1C(C)(C)NC(=O)Nc1ccc(F)c(C(N)=O)c1
cytotoxicity at 70.5 h: -4.97%

NS(=O)(=O)c1ccc(NCc2ccco2)c2ncccc12
cytotoxicity at 70.5 h: 8.34%

CCc1cc(=O)[nH]c(-c2ccc(NC(C)CN3CCOCC3)nc2)n1 (centres undefined)
cytotoxicity at 70.5 h: -0.904%

CCC(c1ccc(F)cc1)S(=O)(=O)CCO (centres undefined)
cytotoxicity at 70.5 h: 15.3%

Cn1cc(C2CN(C(=O)Cc3coc(-c4ccccc4)n3)CCO2)cn1 (centres undefined)
cytotoxicity at 70.5 h: 4.27%

CC(C)CCC(=O)NCC(=O)N1CCCCCC1c1ccco1 (centres undefined)
cytotoxicity at 70.5 h: -5.74%

CCOCCCC(=O)N1CCN(c2cccc(OC)c2)C(C)C1 (centres undefined)
cytotoxicity at 70.5 h: 12.3%

Cc1cc(I)cnc1NC(=O)C(C)(C)C
cytotoxicity at 70.5 h: 5.65%

CCC(CC)N(Cc1cc(=O)n(C)c(=O)n1C)C1CC1
cytotoxicity at 70.5 h: 5.26%

O=C(Cn1ccc(=O)[nH]c1=O)NCC1Cc2ccccc2O1 (centres undefined)
cytotoxicity at 70.5 h: -11.6%

Cn1ccc(CN2CCCC(CNS(C)(=O)=O)C2)cc1=O (centres undefined)
cytotoxicity at 70.5 h: -10.1%

CC(C)C(C(=O)NC1CC1)n1cnc2cc(F)c(F)cc21 (centres undefined)
cytotoxicity at 70.5 h: -0.654%

COC(=O)C(C)N(Cc1cc(=O)n(C)c(=O)n1C)C1CC1 (centres undefined)
cytotoxicity at 70.5 h: 4.91%

Clc1ccc(C2(NCc3noc(C4CC4)n3)CCOCC2)cc1
cytotoxicity at 70.5 h: -8.54%

N#CC1(C(=O)N2CCC(Nc3cccnn3)CC2)CCCCC1
cytotoxicity at 70.5 h: 0.814%

CC(Nc1ccc(N2C(=O)CCCC2=O)cc1)c1ccc(C#N)cc1 (centres undefined)
cytotoxicity at 70.5 h: -6.87%

CCOCC(=O)Nc1ncc(I)cc1C
cytotoxicity at 70.5 h: -7.61%

CN(C)Cc1ccc(NC(=O)c2nccn3ccnc23)cc1
cytotoxicity at 70.5 h: -4.61%

Cc1noc(C)c1NS(=O)(=O)c1cc(C(=O)O)cc(Cl)c1Cl
cytotoxicity at 70.5 h: -4.5%

CCCOCC(=O)Nc1ncc(I)cc1C
cytotoxicity at 70.5 h: 4.92%

Cc1nnc(-c2ccc(C(=O)Nc3ccnc(N(C)C)n3)cc2)o1
cytotoxicity at 70.5 h: 4.63%

O=C(Nc1ccc(CN2CCOCC2)cc1)c1nccn2ccnc12
cytotoxicity at 70.5 h: 22.2%

c1ccc(N2CCC(NCc3cccc4cn[nH]c34)C2)cc1 (centres undefined)
cytotoxicity at 70.5 h: 7.7%

CCOCCCC(=O)N1CCN(C(=O)Cc2cccc(OC)c2)CC1
cytotoxicity at 70.5 h: -5.09%

COC(=O)CNC(=O)C(C(C)C)n1cnc2cc(F)c(F)cc21 (centres undefined)
cytotoxicity at 70.5 h: 5.81%

Clc1ccc(C2(NCc3noc(C4CC4)n3)CCCC2)cc1
cytotoxicity at 70.5 h: -0.425%

CCOCCOC(C)C(=O)Nc1ccc2ccn(CCN(C)C)c2c1 (centres undefined)
cytotoxicity at 70.5 h: -1.63%

CN(C)c1nccc(NC(=O)c2ccncc2)n1
cytotoxicity at 70.5 h: -7.12%

CC(C)(C)Oc1ccc(C(=O)N2CCOCC2c2ncon2)cc1 (centres undefined)
cytotoxicity at 70.5 h: -0.751%

O=C(c1ccc(SC(F)F)cc1)N1CCOCC1c1ncon1 (centres undefined)
cytotoxicity at 70.5 h: -3.71%

CC(C)CC(NC(=O)C1=CCCC1)C(=O)N1CCC(CO)CC1 (centres undefined)
cytotoxicity at 70.5 h: 0.304%

CC(C)c1nc(C2CCCN(C(=O)CN3CCN(C)CC3)C2)no1 (centres undefined)
cytotoxicity at 70.5 h: -7.22%

CC(C)=CCS(=O)(=O)Cc1ccn(-c2cccc(F)c2)n1
cytotoxicity at 70.5 h: -6.79%

CCn1nc(C)c(CNC(=O)NCC(C)(O)c2ccccc2)c1C (centres undefined)
cytotoxicity at 70.5 h: -3.1%

CC(C)c1nc(C2CCCN(C(=O)CN3CCCNC3=O)C2)no1 (centres undefined)
cytotoxicity at 70.5 h: -6.67%

CC(C)NC(=O)CCNC(=O)Nc1cnn(-c2ccccc2Cl)c1
cytotoxicity at 70.5 h: -6.67%

CCOC(=O)c1cnn(-c2cc(C)ccn2)c1N
cytotoxicity at 70.5 h: 8.9%

CCN1CCCN(c2ccc(-n3ccc(C)n3)nn2)CC1
cytotoxicity at 70.5 h: 10.6%

CC(C)(C(=O)NCCS(N)(=O)=O)c1cccc(Br)c1
cytotoxicity at 70.5 h: -6.85%

CC(CCc1ccccc1F)C(=O)NS(=O)(=O)CC1CC1 (centres undefined)
cytotoxicity at 70.5 h: -0.115%

CC(=O)c1c(C)cc(C)c(CS(=O)(=O)c2nccn2C)c1C
cytotoxicity at 70.5 h: 8.95%

CC1CN(S(=O)(=O)c2ccc(F)cc2F)c2cccnc2O1 (centres undefined)
cytotoxicity at 70.5 h: -6.28%

Cc1ccc(S(=O)(=O)N2CC(C)Oc3ncccc32)c(C)c1 (centres undefined)
cytotoxicity at 70.5 h: -4.94%

CCOC(=O)C1CCN(C(=O)CN2CCCC2Cc2ccccc2)CC1 (centres undefined)
cytotoxicity at 70.5 h: -17.2%

Cn1cc(C2(C)CN(Cc3ccc(N4CCCC4)nc3)CCO2)cn1 (centres undefined)
cytotoxicity at 70.5 h: -10.5%

CCc1ccc(C(C)NC(=O)CN(C)Cc2ccc(C)o2)cc1 (centres undefined)
cytotoxicity at 70.5 h: -15%

N#CCCNC(=O)CSc1cc(F)ccc1F
cytotoxicity at 70.5 h: -9.07%

O=C(NCC(O)c1ccc(F)cc1F)c1ccccc1 (centres undefined)
cytotoxicity at 70.5 h: -4.27%

Cc1cccc(C(=O)NCC(O)c2ccc(F)cc2F)c1 (centres undefined)
cytotoxicity at 70.5 h: -0.893%

CN(CCC#N)C(=O)CSc1cc(F)ccc1F
cytotoxicity at 70.5 h: 5.2%

N#CCCNC(=O)CSc1ccc(F)cc1F
cytotoxicity at 70.5 h: -5.86%

Cc1nc(NC(=O)C(C)N2CCN(c3cnccn3)CC2)sc1C (centres undefined)
cytotoxicity at 70.5 h: -4.32%

Cc1cccc(C(=O)NCc2ccc(OCCN(C)C)cc2)c1C
cytotoxicity at 70.5 h: -6.51%

COc1c(C)cnc(CNC(=O)c2cc(C)nc3c2c(C)nn3C)c1C
cytotoxicity at 70.5 h: -6.5%

Cc1cc(CN(C)C(=O)NCc2ccnc(N(C)C)c2)no1
cytotoxicity at 70.5 h: -1.17%

CCCS(=O)(=O)N1CCC(NCc2c(C)nn(C)c2OC)CC1
cytotoxicity at 70.5 h: -7.02%

COc1c(CNC2CCN(CC(=O)NC3CC3)CC2)c(C)nn1C
cytotoxicity at 70.5 h: 2.59%

N#Cc1ccccc1N1CCN(C(=O)NCCN2CCOCC2)CC1
cytotoxicity at 70.5 h: 0.377%

CC(C)Nc1cccc(C(=O)NCC(O)c2cccc(F)c2)c1 (centres undefined)
cytotoxicity at 70.5 h: -6.04%

Fc1ccc(-c2n[nH]cc2CNCCn2cccn2)cc1
cytotoxicity at 70.5 h: -4.83%

Fc1ccc(CNCCn2cccn2)c(Cl)c1
cytotoxicity at 70.5 h: 6.68%

COc1ccc(F)cc1C[S+]([O-])CC(=O)NCc1ccccc1C (centres undefined)
cytotoxicity at 70.5 h: 11%

Cc1ncsc1CCN1CCC(N(C)Cc2ncc(C(C)C)o2)C1 (centres undefined)
cytotoxicity at 70.5 h: 38.4%

NC(=O)CN1CCN(c2ccnc3c(F)ccc(F)c23)CC1
cytotoxicity at 70.5 h: -1.57%

CN(C)C(=O)CN1CCN(c2ccnc3c(F)ccc(F)c23)CC1
cytotoxicity at 70.5 h: -4.33%

Cc1cc(NC(=O)CNC(C)(C)c2ccc3c(c2)OCO3)on1
cytotoxicity at 70.5 h: -2.77%

NC(=O)c1cnc(NC2CCN(c3ccccn3)CC2)c(Cl)c1
cytotoxicity at 70.5 h: -6.48%

Cc1cc(NC(=O)CNC(C)(C)c2ccc3c(c2)OCCO3)no1
cytotoxicity at 70.5 h: 2.35%

CCOCCCC(=O)Nc1c(-c2ccc(F)cc2)ncn1C
cytotoxicity at 70.5 h: 0.124%

Cc1[nH]c(=O)sc1S(=O)(=O)N1CCCC1C(=O)NC1CC1 (centres undefined)
cytotoxicity at 70.5 h: -6.92%

CCOCC(=O)Nc1cc(C)cnc1OC
cytotoxicity at 70.5 h: -3.98%

CCOCCC(=O)Nc1cc(C)cnc1OC
cytotoxicity at 70.5 h: 14.7%

CCc1nc(CNC(=O)Nc2nc(COC)cs2)cs1
cytotoxicity at 70.5 h: -5.86%

O=C(c1csc(-c2ccco2)n1)N1CCN2CCCCC2C1 (centres undefined)
cytotoxicity at 70.5 h: -4.49%

Cc1ccc(OCCC(=O)NCCCN2CCCC2=O)c(C)c1
cytotoxicity at 70.5 h: 17.8%

CCc1ncc2c(n1)CN(CC(O)COc1ccc(C#N)cc1)CC2 (centres undefined)
cytotoxicity at 70.5 h: -0.808%

COc1cccc2[nH]cc(CCNC(=O)N3CCC[C@H]3CO)c12
cytotoxicity at 70.5 h: -1.09%

COc1cc2c(nn1)CCN(CC(O)COc1ccc(C#N)cc1)C2 (centres undefined)
cytotoxicity at 70.5 h: 17.8%

CCS(=O)(=O)NCCCNc1cc(N2CCCC2CO)ncn1 (centres undefined)
cytotoxicity at 70.5 h: -4.09%

O=C(NCCNc1ncccn1)N1CCCC1c1ccc(F)cc1 (centres undefined)
cytotoxicity at 70.5 h: -9.37%

O=C(NCC(F)(F)F)C1CSCN1S(=O)(=O)c1cccc(F)c1 (centres undefined)
cytotoxicity at 70.5 h: -12%

COCC(=O)NCCCn1nc2ccccn2c1=O
cytotoxicity at 70.5 h: -15.5%

CC(C)c1nn(C)c(N2CCOCC2)c1CNCc1cscn1
cytotoxicity at 70.5 h: -14.5%

COc1ccccc1C(=O)NCCCN1CCCC1C(=O)N(C)C (centres undefined)
cytotoxicity at 70.5 h: -14.3%

CC(CCc1ccccc1)NC(=O)CNCCCN(C)C (centres undefined)
cytotoxicity at 70.5 h: -3.07%
